Earlier results as cited in patent publication US20190134140A1, “ORALLY ADMINISTERED COMPOSITION FOR TREATING CYSTIC FIBROSIS, COPD, ASTHMA AND OTHER INFLAMMATORY CONDITIONS” (priority 2017, published 2019).
Read-outs that look alike come from different tables or passages of the source.

Experiments:
[1] = target: dF508 (Homo sapiens, UniProt P13569, DEL508-508)
[2] = test system: ciliary beat frequency

dF508, sequence (P13569 with tags, fused parts or gaps DEL508-508): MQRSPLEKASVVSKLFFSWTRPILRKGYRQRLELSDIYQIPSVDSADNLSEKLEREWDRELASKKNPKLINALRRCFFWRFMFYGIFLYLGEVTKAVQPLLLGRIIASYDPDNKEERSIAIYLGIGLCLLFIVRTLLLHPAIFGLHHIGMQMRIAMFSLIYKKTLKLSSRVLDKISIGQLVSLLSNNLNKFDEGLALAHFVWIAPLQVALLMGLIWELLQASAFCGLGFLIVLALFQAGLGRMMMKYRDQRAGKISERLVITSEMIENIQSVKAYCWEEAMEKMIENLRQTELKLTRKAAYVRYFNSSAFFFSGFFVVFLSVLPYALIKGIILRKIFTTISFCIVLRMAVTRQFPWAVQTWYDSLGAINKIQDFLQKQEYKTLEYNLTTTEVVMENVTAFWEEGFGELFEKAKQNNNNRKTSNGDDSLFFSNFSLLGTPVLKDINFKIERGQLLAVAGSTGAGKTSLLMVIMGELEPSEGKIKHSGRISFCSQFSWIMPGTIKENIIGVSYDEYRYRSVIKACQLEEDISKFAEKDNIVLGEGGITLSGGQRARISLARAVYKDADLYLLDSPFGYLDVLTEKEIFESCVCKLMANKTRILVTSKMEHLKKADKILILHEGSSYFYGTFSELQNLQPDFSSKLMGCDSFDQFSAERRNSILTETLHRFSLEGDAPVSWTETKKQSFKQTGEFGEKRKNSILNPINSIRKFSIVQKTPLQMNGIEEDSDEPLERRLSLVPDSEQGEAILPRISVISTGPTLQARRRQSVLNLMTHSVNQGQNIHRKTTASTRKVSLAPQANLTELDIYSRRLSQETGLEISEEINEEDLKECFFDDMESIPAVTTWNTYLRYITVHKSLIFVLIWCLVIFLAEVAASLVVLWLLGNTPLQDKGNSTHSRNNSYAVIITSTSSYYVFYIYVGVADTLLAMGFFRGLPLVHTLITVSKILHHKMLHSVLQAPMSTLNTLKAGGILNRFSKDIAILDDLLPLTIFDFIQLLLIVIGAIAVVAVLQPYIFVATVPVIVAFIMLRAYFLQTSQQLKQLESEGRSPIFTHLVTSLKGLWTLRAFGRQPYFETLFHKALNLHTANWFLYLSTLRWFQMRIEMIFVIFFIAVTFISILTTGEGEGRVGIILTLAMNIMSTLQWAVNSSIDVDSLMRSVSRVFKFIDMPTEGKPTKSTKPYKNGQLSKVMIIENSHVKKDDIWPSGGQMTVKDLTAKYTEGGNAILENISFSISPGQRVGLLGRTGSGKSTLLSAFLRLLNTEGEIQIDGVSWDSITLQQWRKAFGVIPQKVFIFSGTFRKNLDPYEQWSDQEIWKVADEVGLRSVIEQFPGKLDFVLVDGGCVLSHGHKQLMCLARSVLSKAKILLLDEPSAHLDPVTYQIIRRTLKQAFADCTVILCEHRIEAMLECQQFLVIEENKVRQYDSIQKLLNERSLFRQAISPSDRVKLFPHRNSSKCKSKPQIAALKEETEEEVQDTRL

activation of dF508 [1] | enhancement in permeability (combined with curcumin) | enhancement in permeability (combined with piperine) | enhancement in permeability (combined with quercetin) | SMILES | ciliary beat frequency [2]
activate dF508 |  |  |  | O=c1c(O)c(-c2ccc(O)c(O)c2)oc2cc(O)cc(O)c12 [Quercetin] | increase ciliary beat frequency
 | 300% | 350% | 310% | Oc1ccc(C=Cc2cc(O)cc(O)c2)cc1 [Resveratrol] | 
